IC50 data for 4 molecules are collected here from PubChem BioAssay AID652216 (The Scripps Research Institute Molecular Screening Center, 2013).

The source made the active and inactive calls.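 Rule for the calls: active = IC50 below 10 µM against protein phosphatase 1 in the dose response test; inactive = IC50 of 10 µM or more.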

As usually defined, the IC50 is the concentration needed to halve the response being measured.

The target in this test is Serine/threonine-protein phosphatase PP1-alpha catalytic subunit (Homo sapiens) (UniProt P62136). The test is described as follows: PP1 inhibitor potency with OMFP substrate, dose response, biochemical, fluorescence, set 4 (AID 652216). As to conditions: purified PP1alpha, OMFP dephosphorylation fluorescence.
Sequence of Serine/threonine-protein phosphatase PP1-alpha catalytic subunit (Homo sapiens) (P62136 whole entry, looked up): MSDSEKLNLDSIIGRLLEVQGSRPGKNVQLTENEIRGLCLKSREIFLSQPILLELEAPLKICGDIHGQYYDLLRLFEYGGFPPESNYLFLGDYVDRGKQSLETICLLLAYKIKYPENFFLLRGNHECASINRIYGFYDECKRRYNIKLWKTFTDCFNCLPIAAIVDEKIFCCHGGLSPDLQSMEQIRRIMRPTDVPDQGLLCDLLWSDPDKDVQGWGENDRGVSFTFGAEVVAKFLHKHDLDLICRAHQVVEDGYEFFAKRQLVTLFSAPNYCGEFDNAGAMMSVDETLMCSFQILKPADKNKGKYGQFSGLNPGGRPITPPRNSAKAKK
As to `CN1CCN(C(c2ccc(C(F)(F)F)cn2)c2ccc3cccnc3c2O)CC1` (centres undefined), the IC50 was 4.51 µM.

On to `CN1CCN(C(c2cccc(F)n2)c2ccc3cccnc3c2O)CC1` (centres undefined), for which the IC50 result was “inactive”.

On to `CN1CCN([C@@H](c2ccc(C(F)(F)F)cn2)c2ccc3cccnc3c2O)CC1`, for which the IC50 was 8.39 µM.

Take `CN1CCN([C@H](c2ccc(C(F)(F)F)cn2)c2ccc3cccnc3c2O)CC1`: the concentration for half-maximal inhibition (IC50) is 8.84 µM.
